Measurements from US6344206B1, “Combination of a retinoid with a polyamine polymer” (L'Oreal, priority 1997, dated 2002).

Experiment: Test of stability of all-trans-retinol in ethanol during preservation at 50° C. (residual retinol by HPLC)
Assay type: physicochemical
Details: retinol 0.3% w/v in ethanol without stabilizer, 20 days of storage at 50° C., aerobic medium
Protocol: The stability of a retinoid is defined in accordance with the present invention by the percentage of retinoid which remains in its original form after the composition containing the retinoid has been stored for a given period and at a given temperature.
The study conditions are the following:
PEI at 0.25, 0.5 and 1% (by weight/volume) in ethanol;
All-trans-retinol marketed by Fluka at 0.3% (by weight/volume) in ethanol;
Aerobic medium with 55 vol % air and 45 vol % ethanol;
Preservation at 50° C. in an oven;
The level of residual retinol after one month of preservation at 50° C. in an aerobic medium (55% of volume of air) is monitored by HPLC (on a Spherisorb ODS1 C18 column) by elution with an H2O/CH3CO2H/CH3CO2NH4/acetonitrile:
The level of residual retinol after two months of storage at 50° C. in an aerobic medium (55 vol % air) is monitored by HPLC (same conditions as in Test 1).
The level of residual retinol after one month of storage at 50° C. in an aerobic medium (55 vol % air) is monitored by HPLC (same conditions as in Test 1).
From an alcoholic solution of retinol at 0.26%, the level of residual retinol after several days of storage of the formulae at 50° C. in aerobic medium (55 vol % of air) is monitored by HPLC. […]

CC1=C(/C=C/C(C)=C/C=C/C(C)=C/CO)C(C)(C)CCC1 [retinol, All-trans-retinol]
Degradation of retinol: ~99%
